# Results reported in ChEMBL document CHEMBL1201862, “PubChem BioAssay data set” (2004).
#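 Interpolation was linear, between the two tested concentrations surrounding the appropriate level; five concentrations were tested over 48 hours in 96-well plates. GI50 = concentration required for 50% inhibition of growth.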 Activity calls are given as the source filed them. Rule as the data show it: active = GI50 up to about 1.1 µM and inactive = higher.
# Columns and labels:
# Assay in all cases: NCI-60 cell line screen, 48 h
# DMS-114 = tested on: DMS-114
# COLO 205 = tested on: COLO 205
# SK-MEL-2 = tested on: SK-MEL-2
# OVCAR-8 = tested on: OVCAR-8
# SN12C = tested on: SN12C
# SK-OV-3 = tested on: SK-OV-3
# HOP-62 = tested on: HOP-62
# CAKI-1 = tested on: CAKI-1
# UO-31 = tested on: UO-31
# HOP-18 = tested on: HOP-18
# K562 = tested on: K562
# SNB-19 = tested on: SNB-19
# 786-0 = tested on: 786-0
# HCT-15 = tested on: HCT-15
# CCRF-CEM = tested on: CCRF-CEM
# SNB-75 = tested on: SNB-75
# NCI-H522 = tested on: NCI-H522
# RPMI-8226 = tested on: RPMI-8226
# DMS-273 = tested on: DMS-273
# A498 = tested on: A498
# OVCAR-5 = tested on: OVCAR-5
# SF-295 = tested on: SF-295
# UACC-62 = tested on: UACC-62
# HCT-116 = tested on: HCT-116
# ACHN = tested on: ACHN
# HL-60 = tested on: HL-60
# HCC 2998 = tested on: HCC 2998
# SW-620 = tested on: SW-620
# LXFL 529 = tested on: LXFL 529
# HT-29 = tested on: HT-29
# DLD-1 = tested on: DLD-1
# LOX IMVI = tested on: LOX IMVI
# M19-MEL = tested on: M19-MEL
# OVCAR-4 = tested on: OVCAR-4
# NCI-H460 = tested on: NCI-H460
# UACC-257 = tested on: UACC-257
# MOLT-4 = tested on: MOLT-4
# KM-20L2 = tested on: KM-20L2
# KM12 = tested on: KM12
# HOP-92 = tested on: HOP-92
# SF-539 = tested on: SF-539
# SNB-78 = tested on: SNB-78
# U-251 = tested on: U-251
# IGROV-1 = tested on: IGROV-1
# Malme-3M = tested on: Malme-3M
# NCI-H226 = tested on: NCI-H226
# RXF 393 = tested on: RXF 393
# TK-10 = tested on: TK-10
# A549 = tested on: A549
# SK-MEL-5 = tested on: SK-MEL-5
# M14 = tested on: M14
# SF-268 = tested on: SF-268
# XF498 = tested on: XF498
# EKVX = tested on: EKVX
# SK-MEL-28 = tested on: SK-MEL-28
# OVCAR-3 = tested on: OVCAR-3
# NCI-H23 = tested on: NCI-H23
structure (smiles),measurement,setting,value
N#CC1(C#N)C=CC(=C2OCC3CCCN23)C=C1 (stereo unspecified),GI50,DMS-114,> 100 µM (inactive)
same,GI50,COLO 205,> 100 µM (inactive)
same,GI50,SK-MEL-2,> 100 µM (inactive)
same,GI50,OVCAR-8,> 100 µM (inactive)
same,GI50,SN12C,> 100 µM (inactive)
same,GI50,SK-OV-3,> 100 µM (inactive)
same,GI50,HOP-62,> 100 µM (inactive)
same,GI50,CAKI-1,> 100 µM (inactive)
same,GI50,UO-31,> 100 µM (inactive)
same,GI50,HOP-18,> 100 µM (inactive)
same,GI50,K562,> 100 µM (inactive)
same,GI50,SNB-19,> 100 µM (inactive)
same,GI50,786-0,> 100 µM (inactive)
same,GI50,HCT-15,> 100 µM
same,GI50,CCRF-CEM,77.1 µM (inactive)
same,GI50,SNB-75,52.2 µM (inactive)
same,GI50,NCI-H522,> 100 µM (inactive)
same,GI50,RPMI-8226,> 100 µM (inactive)
same,GI50,DMS-273,> 100 µM (inactive)
same,GI50,A498,> 100 µM (inactive)
same,GI50,OVCAR-5,> 100 µM (inactive)
same,GI50,SF-295,> 100 µM (inactive)
same,GI50,UACC-62,> 100 µM (inactive)
same,GI50,HCT-116,> 100 µM (inactive)
same,GI50,ACHN,> 100 µM (inactive)
same,GI50,HL-60,87.5 µM (inactive)
same,GI50,HCC 2998,> 100 µM (inactive)
same,GI50,SW-620,> 100 µM (inactive)
same,GI50,LXFL 529,> 100 µM (inactive)
same,GI50,HT-29,> 100 µM (inactive)
same,GI50,DLD-1,> 100 µM (inactive)
same,GI50,LOX IMVI,> 100 µM (inactive)
same,GI50,M19-MEL,> 100 µM (inactive)
same,GI50,OVCAR-4,> 100 µM (inactive)
same,GI50,NCI-H460,> 100 µM (inactive)
same,GI50,UACC-257,> 100 µM (inactive)
same,GI50,MOLT-4,> 100 µM (inactive)
same,GI50,KM-20L2,> 100 µM (inactive)
same,GI50,KM12,> 100 µM (inactive)
same,GI50,HOP-92,96.2 µM (inactive)
same,GI50,SF-539,> 100 µM (inactive)
same,GI50,SNB-78,> 100 µM (inactive)
same,GI50,U-251,> 100 µM (inactive)
same,GI50,IGROV-1,> 100 µM (inactive)
same,GI50,Malme-3M,> 100 µM (inactive)
same,GI50,NCI-H226,> 100 µM (inactive)
same,GI50,RXF 393,> 100 µM (inactive)
same,GI50,TK-10,> 100 µM (inactive)
same,GI50,A549,> 100 µM (inactive)
same,GI50,SK-MEL-5,37.8 µM (inactive)
same,GI50,M14,> 100 µM (inactive)
same,GI50,SF-268,> 100 µM (inactive)
CCN(CC)C(=O)C(C)n1cc(C)c(=O)[nH]c1=O (stereo unspecified),GI50,DMS-114,> 100 µM (inactive)
same,GI50,COLO 205,> 100 µM (inactive)
same,GI50,XF498,> 100 µM (inactive)
same,GI50,SK-MEL-2,> 100 µM (inactive)
same,GI50,OVCAR-8,> 100 µM (inactive)
same,GI50,SN12C,> 100 µM (inactive)
same,GI50,EKVX,> 100 µM (inactive)
same,GI50,SK-MEL-28,> 100 µM (inactive)
same,GI50,OVCAR-3,> 100 µM (inactive)
same,GI50,HOP-62,> 100 µM (inactive)
same,GI50,UO-31,> 100 µM (inactive)
same,GI50,K562,> 100 µM (inactive)
same,GI50,SNB-19,> 100 µM (inactive)
same,GI50,786-0,> 100 µM (inactive)
same,GI50,HCT-15,> 100 µM
same,GI50,CCRF-CEM,> 100 µM (inactive)
same,GI50,SNB-75,15.1 µM (inactive)
same,GI50,NCI-H522,> 100 µM (inactive)
same,GI50,RPMI-8226,> 100 µM (inactive)
same,GI50,DMS-273,> 100 µM (inactive)
same,GI50,OVCAR-5,> 100 µM (inactive)
same,GI50,SF-295,> 100 µM (inactive)
same,GI50,UACC-62,> 100 µM (inactive)
same,GI50,HCT-116,> 100 µM (inactive)
same,GI50,NCI-H23,> 100 µM (inactive)
same,GI50,ACHN,> 100 µM (inactive)
same,GI50,HL-60,> 100 µM (inactive)
same,GI50,HCC 2998,> 100 µM (inactive)
same,GI50,SW-620,> 100 µM (inactive)
same,GI50,LXFL 529,> 100 µM (inactive)
same,GI50,HT-29,> 100 µM (inactive)
same,GI50,LOX IMVI,> 100 µM (inactive)
same,GI50,M19-MEL,> 100 µM (inactive)
same,GI50,OVCAR-4,> 100 µM (inactive)
same,GI50,NCI-H460,> 100 µM (inactive)
same,GI50,MOLT-4,> 100 µM (inactive)
same,GI50,KM-20L2,> 100 µM (inactive)
same,GI50,KM12,> 100 µM (inactive)
same,GI50,SF-539,> 100 µM (inactive)
same,GI50,SNB-78,> 100 µM (inactive)
same,GI50,U-251,> 100 µM (inactive)
same,GI50,IGROV-1,> 100 µM (inactive)
same,GI50,Malme-3M,> 100 µM (inactive)
same,GI50,RXF 393,> 100 µM (inactive)
same,GI50,TK-10,> 100 µM (inactive)
same,GI50,A549,> 100 µM (inactive)
same,GI50,SK-MEL-5,> 100 µM (inactive)
same,GI50,M14,> 100 µM (inactive)
same,GI50,SF-268,> 100 µM (inactive)
